Experimental data: patent US6054435A, “6-O-substituted macrolides having antibacterial activity” (priority 1999, dated 2000)
Converted amounts (≈) assume the structure as drawn.

Columns and labels:
Assay in all cases: in vitro antibacterial activity (MIC), agar dilution
Type in all cases: cell-based
[1] = tested on: Haemophilis Influenzae DILL AMP R; settings: organism code WW; BHI agar, 35-37° C., 20 to 24 hours; unit assumed
Description: (§1) Representative compounds of the present invention were assayed in vitro for antibacterial activity as follows: Twelve petri dishes containing successive aqueous dilutions of the test compound mixed with 10 mL of sterilized Brain Heart Infusion (BHI) agar (Difco 0418-01-5) were prepared. Each plate was inoculated with 1:100 (or 1:10 for slow-growing strains, such as Micrococcus and Streptococcus) dilutions of up to 32 different microorganisms, using a Steers replicator block. […] In addition, a control plate, using BHI agar containing no test compound, was prepared and incubated at the beginning and end of each test.
(§2) An additional plate containing a compound having known susceptibility patterns for the organisms being tested and belonging to the same antibiotic class as the test compound was also prepared and incubated as a further control, as well as to provide test-to-test comparability.
(§3) After incubation, each plate was visually inspected. The minimum inhibitory concentration (MIC) was defined as the lowest concentration of drug yielding no growth, a slight haze, or sparsely isolated colonies on the inoculum spot as compared to the growth control.

[2] = tested on: Staphylococcus aureus ATCC 6538P; settings: organism code AA; BHI agar, 35-37° C., 20 to 24 hours; unit assumed
Description: as §1, §2, §3

[3] = tested on: Streptococcus pyogenes EES61; settings: organism code LL; BHI agar, 35-37° C., 20 to 24 hours; unit assumed
Description: as §1, §2, §3

[4] = tested on: Staphylococcus aureus A5177; settings: organism code BB; BHI agar, 35-37° C., 20 to 24 hours; unit assumed
Description: as §1, §2, §3

[5] = tested on: Nocardia Asteroides ATCC9970; settings: organism code VV; BHI agar, 35-37° C., 20 to 24 hours; unit assumed
Description: as §1, §2, §3

[6] = tested on: Staphylococcus aureus A-5278; settings: organism code CC; BHI agar, 35-37° C., 20 to 24 hours; unit assumed
Description: as §1, §2, §3

[7] = tested on: Staphylococcus aureus 1775; settings: organism code GG; BHI agar, 35-37° C., 20 to 24 hours; unit assumed
Description: as §1, §2, §3

Escherichia coli JUHL = settings: organism code QQ; BHI agar, 35-37° C., 20 to 24 hours; unit assumed
Description: as §1, §2, §3

[8] = tested on: Streptococcus agalactiae CMX 508; settings: organism code KK; BHI agar, 35-37° C., 20 to 24 hours; unit assumed
Description: as §1, §2, §3

Escherichia coli SS = settings: organism code RR; BHI agar, 35-37° C., 20 to 24 hours; unit assumed
Description: as §1, §2, §3

[9] = tested on: Streptococcus Pneumonia GYR 1171; settings: organism code YY; BHI agar, 35-37° C., 20 to 24 hours; unit assumed
Description: as §1, §2, §3

[10] = tested on: Staphylococcus epidermidis 3519; settings: organism code HH; BHI agar, 35-37° C., 20 to 24 hours; unit assumed
Description: as §1, §2, §3

[11] = tested on: Mycobacterium smegmatis ATCC 114; settings: organism code UU; BHI agar, 35-37° C., 20 to 24 hours; unit assumed
Description: as §1, §2, §3

[12] = tested on: Streptococcus Pneumonia 5649; settings: organism code ZZA; BHI agar, 35-37° C., 20 to 24 hours; unit assumed
Description: as §1, §2, §3

[13] = tested on: Streptococcus Pneumonia 5979; settings: organism code ZZ; BHI agar, 35-37° C., 20 to 24 hours; unit assumed
Description: as §1, §2, §3

[14] = tested on: Streptococcus Pneumonia ATCC6303; settings: organism code XX; BHI agar, 35-37° C., 20 to 24 hours; unit assumed
Description: as §1, §2, §3

[15] = tested on: Staphylococcus aureus NCTC10649M; settings: organism code EE; BHI agar, 35-37° C., 20 to 24 hours; unit assumed
Description: as §1, §2, §3

Candida albicans CCH 442 = settings: organism code TT; BHI agar, 35-37° C., 20 to 24 hours; unit assumed
Description: as §1, §2, §3

[16] = tested on: Streptococcus pyogenes 930; settings: organism code MM; BHI agar, 35-37° C., 20 to 24 hours; unit assumed
Description: as §1, §2, §3

[17] = tested on: Streptococcus pyogenes PIU 2548; settings: organism code NN; BHI agar, 35-37° C., 20 to 24 hours; unit assumed
Description: as §1, §2, §3

[18] = tested on: Streptococcus bovis A-5169; settings: organism code JJ; BHI agar, 35-37° C., 20 to 24 hours; unit assumed
Description: as §1, §2, §3

[19] = tested on: Micrococcus luteus ATCC 4698; settings: organism code PP; BHI agar, 35-37° C., 20 to 24 hours; unit assumed
Description: as §1, §2, §3

[20] = tested on: Enterococcus faecium ATCC 8043; settings: organism code II; BHI agar, 35-37° C., 20 to 24 hours; unit assumed
Description: as §1, §2, §3

[21] = tested on: Staphylococcus aureus CMX 553; settings: organism code FF; BHI agar, 35-37° C., 20 to 24 hours; unit assumed
Description: as §1, §2, §3

[22] = tested on: Staphylococcus aureus CMX 642A; settings: organism code DD; BHI agar, 35-37° C., 20 to 24 hours; unit assumed
Description: as §1, §2, §3

| Structure (SMILES) | MIC [1] [µg/mL] | MIC [2] [µg/mL] | MIC [3] [µg/mL] | MIC [4] [µg/mL] | MIC [5] [µg/mL] | MIC [6] [µg/mL] | MIC [7] [µg/mL] | MIC (Escherichia coli JUHL) [µg/mL] | MIC [8] [µg/mL] | MIC (Escherichia coli SS) [µg/mL] | MIC [9] [µg/mL] | MIC [10] [µg/mL] | MIC [11] [µg/mL] | MIC [12] [µg/mL] | MIC [13] [µg/mL] | MIC [14] [µg/mL] | MIC [15] [µg/mL] | MIC (Candida albicans CCH 442) [µg/mL] | MIC [17] [µg/mL] | MIC [19] [µg/mL] | also measured |
| --- | --- | --- | --- | --- | --- | --- | --- | --- | --- | --- | --- | --- | --- | --- | --- | --- | --- | --- | --- | --- | --- |
| CC[C@H]1OC(=O)[C@H](C)C(=O)[C@H](C)[C@@H](O[C@@H]2O[C@H](C)C[C@H](N(C)C)[C@H]2O)[C@](C)(OCC#Cc2ccc(-c3ccccn3)s2)C[C@@H](C)C2=NCCN3C(=O)O[C@@]1(C)[C@H]3[C@H]2C [Example 35] | 4 (≈ 4.87 µM) | 0.05 (≈ 0.0609 µM) | 0.02 (≈ 0.0244 µM) | 0.1 (≈ 0.122 µM) | 0.02 (≈ 0.0244 µM) | > 100 | > 100 | 25 (≈ 30.4 µM) | 0.05 (≈ 0.0609 µM) | 0.39 (≈ 0.475 µM) | ≤ 0.004 | 0.1 (≈ 0.122 µM) | 0.2 (≈ 0.244 µM) | 0.25 (≈ 0.304 µM) | 4 (≈ 4.87 µM) | ≤ 0.004 | 0.2 (≈ 0.244 µM) | > 100 | 0.2 (≈ 0.244 µM) | 0.2 (≈ 0.244 µM) | MIC [16]: 6.2 µg/mL (≈ 7.55 µM); MIC [18]: 0.01 µg/mL (≈ 0.0122 µM) |
| CC[C@H]1OC(=O)[C@H](C)C(=O)[C@H](C)[C@@H](O[C@@H]2O[C@H](C)C[C@H](N(C)C)[C@H]2O)[C@](C)(OCC#Cc2ccc(-c3cscn3)s2)C[C@@H](C)C(=O)[C@H](C)[C@H]2NC(=O)O[C@@]21C [Example 30] | 2 (≈ 2.49 µM) | 0.02 (≈ 0.0249 µM) | 0.02 (≈ 0.0249 µM) | 0.02 (≈ 0.0249 µM) | 0.01 (≈ 0.0125 µM) | > 100 | > 100 | 12.5 (≈ 15.6 µM) | 0.02 (≈ 0.0249 µM) | 0.1 (≈ 0.125 µM) | ≤ 0.004 | 0.05 (≈ 0.0623 µM) | 0.39 (≈ 0.486 µM) | 0.25 (≈ 0.312 µM) | 1 (≈ 1.25 µM) | ≤ 0.004 | 0.05 (≈ 0.0623 µM) | > 100 | 0.1 (≈ 0.125 µM) | 0.1 (≈ 0.125 µM) | MIC [16]: 6.2 µg/mL (≈ 7.73 µM); MIC [18]: ≤ 0.005 µg/mL |
| CC[C@H]1OC(=O)[C@H](C)C(=O)[C@H](C)[C@@H](O[C@@H]2O[C@H](C)C[C@H](N(C)C)[C@H]2O)[C@](C)(OCC#Cc2ccc(-c3cncc(C(=O)NN(C)C)c3)s2)C[C@@H](C)C(=O)[C@H](C)[C@H]2NC(=O)O[C@@]21C [Example 12] | 16 (≈ 18.1 µM) | 0.39 (≈ 0.442 µM) | 0.05 (≈ 0.0567 µM) | 0.39 (≈ 0.442 µM) | 0.2 (≈ 0.227 µM) | > 100 | > 100 | > 100 | 0.05 (≈ 0.0567 µM) | 0.78 (≈ 0.884 µM) | 0.03 (≈ 0.034 µM) | 0.39 (≈ 0.442 µM) | 6.2 (≈ 7.03 µM) | 1 (≈ 1.13 µM) | 1 (≈ 1.13 µM) | 0.03 (≈ 0.034 µM) | 0.39 (≈ 0.442 µM) | > 100 | 0.78 (≈ 0.884 µM) | 0.39 (≈ 0.442 µM) | MIC [20]: 0.02 µg/mL (≈ 0.0227 µM); MIC [16]: 50 µg/mL (≈ 56.7 µM); MIC [18]: 0.05 µg/mL (≈ 0.0567 µM) |
| CC[C@H]1OC(=O)[C@H](C)C(=O)[C@H](C)[C@@H](O[C@@H]2O[C@H](C)C[C@H](N(C)C)[C@H]2O)[C@](C)(OCC#Cc2ccc(-c3cccnc3)s2)C[C@@H](C)C(=O)[C@H](C)[C@H]2NC(=O)O[C@@]21C [Example 2] | – | 0.05 (≈ 0.0628 µM) | – | 0.05 (≈ 0.0628 µM) | 0.05 (≈ 0.0628 µM) | – | – | – | – | 0.1 (≈ 0.126 µM) | – | 0.05 (≈ 0.0628 µM) | – | – | – | – | 0.05 (≈ 0.0628 µM) | – | 0.1 (≈ 0.126 µM) | 0.1 (≈ 0.126 µM) | MIC [21]: 0.05 µg/mL (≈ 0.0628 µM); MIC [22]: 0.05 µg/mL (≈ 0.0628 µM); MIC [20]: 0.05 µg/mL (≈ 0.0628 µM) |
